In test [1] the target is T1, full length human TREX1 (Homo sapiens, UniProt Q9NSU2).
T1 construct: N-terminally His-Tev tagged full length human TREX1; His-Tev (His tag with TEV protease site) (N); made in house; host or cells: E. coli
T1 sequence (Q9NSU2 1-314): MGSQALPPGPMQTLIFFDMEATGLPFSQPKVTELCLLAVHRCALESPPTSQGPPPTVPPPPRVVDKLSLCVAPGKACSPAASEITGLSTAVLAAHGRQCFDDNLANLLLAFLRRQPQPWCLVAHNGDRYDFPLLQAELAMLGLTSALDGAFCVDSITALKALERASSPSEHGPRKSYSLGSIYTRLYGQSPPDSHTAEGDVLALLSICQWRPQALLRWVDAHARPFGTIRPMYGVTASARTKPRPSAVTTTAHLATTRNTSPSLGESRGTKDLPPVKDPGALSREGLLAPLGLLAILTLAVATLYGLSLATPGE
As to the kind of experiment: TREX1 Biochemical Assay (fluorescence assay, degradation of dsDNA substrate). The note with it: 150 pM TREX1, 60 nM dsDNA substrate, 25 minutes at room temperature; read-out: hTREX1 EC50. Here is the method: Degradation of the dsDNA liberates free fluorophore to produce a fluorescent signal. Specifically, 7.5 μL of N-terminally His-Tev tagged full length human TREX1 (expressed in E. coli and purified in house) in reaction buffer (50 mM Tris (pH 7.4), 150 mM NaCl, 2 mM DTT, 0.1 mg/mL BSA, 0.01% (v/v) Tween-20 and 100 mM MgCl2) was added to a 384-well Black ProxiPlate Plus (Perkin Elmer) which already contained compound (150 nL) at varying concentrations as a 10-point dose-response in DMSO. To this was added 7.5 μL of dsDNA substrate (Strand A: 5′ TEX615/GCT AGG CAG 3′; Strand B: 5′ CTG CCT AGC/IAbRQSp (Integrated DNA Technologies)) in reaction buffer. Final concentrations were 150 pM TREX1, 60 nM dsDNA substrate in reaction buffer with 1.0% DMSO (v/v). After 25 minutes at room temperature, reactions were quenched by the addition of 5 μL of stop buffer (same as reaction buffer plus 200 mM EDTA). Final concentrations in the quenched reaction were 112.5 pM TREX1, 45 nM DNA and 50 mM EDTA in a volume of 20 μL. After a 5-minute incubation at room temperature, plates were read in a laser sourced Envision (Perkin-Elmer), measuring fluorescence at 615 nm following excitation w/570 nm light. IC50 values were calculated by comparing the measured fluorescence at 615 nm ratio relative to control wells pre-quenched w/stop buffer (100% inhibition) and no inhibitor (0% inhibition) controls as using non-linear least square four parameter fits and either Genedata or GraphPad Prism (GraphPad Software, Inc.).

Test [2] concerns the target T2, human TREX2 (residues M44-A279) (Homo sapiens, UniProt Q9BQ50).
T2 construct: human TREX2 (residues M44-A279, expressed in E. coli); His-Tev (His tag with TEV protease site) (N); made in house; host or cells: E. coli
T2 sequence (Q9BQ50 44-279 isoform Q9BQ50-1): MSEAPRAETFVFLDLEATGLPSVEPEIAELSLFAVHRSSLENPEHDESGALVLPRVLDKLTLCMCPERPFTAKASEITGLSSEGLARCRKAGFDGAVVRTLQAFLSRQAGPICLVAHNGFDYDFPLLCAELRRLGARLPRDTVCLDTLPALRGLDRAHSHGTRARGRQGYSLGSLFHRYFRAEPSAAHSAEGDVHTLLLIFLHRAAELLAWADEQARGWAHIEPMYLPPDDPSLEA
Put plainly: TREX2 Biochemical Assay (fluorescence assay, degradation of dsDNA substrate). The note with it: 2.5 nM TREX2, 60 nM dsDNA substrate, 25 minutes at room temperature; read-out: hTREX2 EC50. How it is done: Degradation of the dsDNA liberates free fluorophore to produce a fluorescent signal. Specifically, 7.5 μL of N-terminally His-Tev tagged human TREX2 (residues M44-A279, expressed in E. coli and purified in house) in reaction buffer (50 mM Tris (pH 7.4), 150 mM NaCl, 2 mM DTT, 0.1 mg/mL BSA, 0.01% (v/v) Tween-20 and 100 mM MgCl2) was added to a 384-well Black ProxiPlate Plus (Perkin Elmer) which already contained compound (150 nL) at varying concentrations as a 10-point dose-response in DMSO. To this was added 7.5 μL of dsDNA substrate (Strand A: 5′ TEX615/GCT AGG CAG 3′; Strand B: 5′ CTG CCT AGC/IAbRQSp (IDT)) in reaction buffer. Final concentrations were 2.5 nM TREX2, 60 nM dsDNA substrate in reaction buffer with 1.0% DMSO (v/v). After 25 minutes at room temperature, reactions were quenched by the addition of 5 μL of stop buffer (same as reaction buffer plus 200 mM EDTA). Final concentrations in the quenched reaction mixture were […] TREX2, 45 nM DNA and 50 mM EDTA in a volume of 20 μL. After a 5-minute incubation at room temperature, plates were read in a laser sourced Envision (Perkin-Elmer), measuring fluorescence at 615 nm following excitation w/570 nm light. IC50 values were calculated by comparing the measured fluorescence at 615 nm ratio relative to control wells pre-quenched w/stop buffer (100% inhibition) and no inhibitor (0% inhibition) controls as using non-linear least square four parameter fits and either Genedata or GraphPad Prism (GraphPad Software, Inc.).

The structures appear in SMILES notation.

On to `O=C(c1cc(F)cc(F)c1)N(Cc1cccnc1)[C@@H](c1cn[nH]c1)c1ccc(Cl)cc1Cl` [Compound 222], for which the EC50 lay within 1 to 10 µM in test [1] and 10 to 100 µM in test [2].
The matching figures for `O=C(c1ccc(F)c(Br)c1)N(Cc1cccnc1)Cc1ccc(Cl)cc1Cl` [Compound 12]: 1 to 10 µM and greater than 100 µM.
On to `O=C(c1ccc(Oc2ccc(F)cc2)cc1)N(Cc1cccnc1)Cc1cc(Cl)cc(Cl)c1` [Compound 74], for which the EC50 in test [1] was greater than 10 µM; in test [2], greater than 100 µM.
The matching figures for `CC[C@H](c1ccc2c(c1Cl)OCO2)N(Cc1ccc(C(=O)O)nc1)C(=O)c1cc(F)cc(F)c1` [Compound 233]: less than 0.1 µM and 1 to 10 µM.
Consider `CC[C@@H](c1cccc(OC)c1Cl)N(Cc1ccc(C(=O)O)nc1)C(=O)c1cc(F)cc(F)c1` [Compound 167], for which the EC50 in test [1] is less than 0.1 µM; in test [2], 1 to 10 µM.
The matching figures for `Cc1cccc(CN(Cc2cccnc2)C(=O)c2cccc(F)c2)c1Cl` [Compound 135]: 1 to 10 µM and 10 to 100 µM.
In the case of `O=C(c1cc(F)cc(F)c1)N(Cc1cccnc1)[C@H](c1cn[nH]c1)c1ccc(Cl)cc1Cl` [Compound 220], the EC50 in test [1] is 0.1 to 1 µM; in test [2], 10 to 100 µM.
Consider `N#Cc1ccc(C(=O)N(Cc2cccnc2)Cc2ccc(Cl)cc2Cl)cc1` [Compound 103], for which the EC50 is greater than 10 µM in test [1] and greater than 100 µM in test [2].
Taken in the same sequence, the figures for `CCOc1cccc([C@H](CC)N(Cc2ccc(C(=O)O)nc2)C(=O)c2cc(F)cc(F)c2)c1Cl` [Compound 229] were less than 0.1 µM and 1 to 10 µM.
The matching figures for `Cn1cc(CN(Cc2ccc(C(=O)O)nc2)C(=O)c2cc(F)cc(F)c2)c(C(F)(F)F)n1` [Compound 185]: 0.1 to 1 µM and 10 to 100 µM.
As to `CC[C@@H](c1ccc(OC)c(OC)c1Cl)N(Cc1ccc(C(=O)O)nc1)C(=O)c1cc(F)cc(F)c1` [Compound 227], the EC50 is less than 0.1 µM in test [1] and 1 to 10 µM in test [2].
For the molecule `Cc1nonc1C(=O)N(Cc1cccnc1)Cc1ccc(Cl)cc1Cl` [Compound 116], the EC50 in test [1] is greater than 10 µM; in test [2], greater than 100 µM.
For `O=C(c1cc(F)cc(F)c1)N(Cc1ccc(-c2cc(C(F)(F)F)n[nH]2)nc1)Cc1ccccc1Cl` [Compound 223], the values for the EC50 in test [1] and in test [2] were greater than 10 µM and greater than 100 µM, respectively.
`COc1cccc(C(=O)N(Cc2cccnc2)Cc2cc(Cl)cc(Cl)c2)c1` [Compound 36]: the EC50 in test [1] was greater than 10 µM; in test [2], greater than 100 µM.
The matching figures for `O=C(c1ccc(Cl)cc1)N(Cc1cccnc1)Cc1cc(Cl)cc(Cl)c1` [Compound 29]: greater than 10 µM and greater than 100 µM.
In the case of `C[C@H](c1ccc(Cl)cc1Cl)N(Cc1cccnc1)C(=O)c1cccc(F)c1` [Compound 155], the EC50 in test [1] fell in the range of 0.1 to 1 µM; in test [2], 10 to 100 µM.
The matching figures for `O=C(C1CC1)N(Cc1cccnc1)Cc1ccc(Cl)cc1Cl` [Compound 81]: greater than 10 µM and greater than 100 µM.
Regarding `O=C(c1ccc(O)cc1)N(Cc1cccnc1)Cc1cc(Cl)cc(Cl)c1` [Compound 48], the values for the EC50 in test [1] and in test [2] were greater than 10 µM and greater than 100 µM, respectively.
Take `O=C(c1cc(F)cc(F)c1)N(Cc1cccnc1)[C@H](CCO)c1ccc(Cl)cc1Cl` [Compound 260]: the 50% effective concentration (EC50) in test [1] is less than 0.1 µM; in test [2], 1 to 10 µM.
Regarding `O=C(O)c1ccc(CN(Cc2c(Cl)cccc2Cl)C(=O)c2cc(F)cc(F)c2)cn1` [Compound 186], the EC50 in test [1] is less than 0.1 µM; in test [2], 1 to 10 µM.
As to `COc1cccc(CN(Cc2ccc(C(=O)O)nc2)C(=O)c2cc(F)cc(F)c2)c1C` [Compound 195], the figures for the EC50 in test [1] and in test [2] were less than 0.1 µM and 1 to 10 µM, respectively.
With `O=C(O)c1cc(CO)c(CN(Cc2cccc(Cl)c2Cl)C(=O)c2cc(F)cc(F)c2)cn1` [Compound 206], the results for the EC50 in test [1] and in test [2] were less than 0.1 µM and 10 to 100 µM, respectively.
For the molecule `O=C(c1cccc(F)c1)N(Cc1cnc2ccccc2c1)Cc1ccc(Cl)cc1Cl` [Compound 109], the figures for the EC50 in test [1] and in test [2] were greater than 10 µM and greater than 100 µM, respectively.
The matching figures for `NC(=O)c1ccc(CN(Cc2cccc(Cl)c2Cl)C(=O)c2cc(F)cc(F)c2)cn1` [Compound 150]: 1 to 10 µM and greater than 100 µM.
Turning to `CC[C@@H](c1ccc2c(c1Cl)OCO2)N(Cc1ccc(C(=O)O)nc1)C(=O)c1cc(F)cc(F)c1` [Compound 230], the concentration for a half-maximal effect (EC50) in test [1] is less than 0.1 µM; in test [2], 1 to 10 µM.
Turning to `N#CCC[C@@H](c1ccccc1Cl)N(Cc1cccnc1)C(=O)c1cc(F)cc(F)c1` [Compound 177], the values for the EC50 in test [1] and in test [2] were 0.1 to 1 µM and 10 to 100 µM, respectively.
The matching figures for `O=C(c1cccc(F)c1)N(Cc1cccnc1)Cc1c(F)cccc1Cl` [Compound 130]: 1 to 10 µM and 10 to 100 µM.
The matching figures for `O=C(c1ccc(F)c(Cl)c1)N(Cc1cccnc1)Cc1cc(Cl)cc(Cl)c1` [Compound 65]: 1 to 10 µM and greater than 100 µM.
Taken in the same sequence, the figures for `CNc1cc(CN(Cc2cccc(Cl)c2Cl)C(=O)c2cc(F)cc(F)c2)cnc1C(=O)O` [Compound 240] were less than 0.1 µM and 10 to 100 µM.
With `C[C@@H](c1ccc(Cl)cc1Cl)N(Cc1cccnc1)C(=O)c1cccc(F)c1` [Compound 156], the EC50 in test [1] was greater than 10 µM; in test [2], greater than 100 µM.
Consider `CCC(=O)N(Cc1cccnc1)Cc1ccc(Cl)cc1Cl` [Compound 88], for which the EC50 in test [1] is greater than 10 µM; in test [2], greater than 100 µM.
The matching figures for `O=C(c1ccc(F)cn1)N(Cc1cccnc1)Cc1ccc(Cl)cc1Cl` [Compound 99]: greater than 10 µM and greater than 100 µM.
On to `N#CC[C@H](c1cccc(Cl)c1Cl)N(Cc1cccnc1)C(=O)c1cc(F)cc(F)c1` [Compound 235], for which the results for the EC50 in test [1] and in test [2] were less than 0.1 µM and 1 to 10 µM, respectively.
The matching figures for `CC[C@H](c1cccc(Cl)c1Cl)N(Cc1ccc(C(=O)O)nc1)C(=O)c1cc(F)cc(F)c1` [Compound 255]: less than 0.1 µM and less than 1 µM.
As to `O=C(c1cc(F)ccc1F)N(Cc1cccnc1)Cc1ccc(Cl)cc1Cl` [Compound 122], the concentration giving a half-maximal response (EC50) was greater than 10 µM in test [1] and greater than 100 µM in test [2].
The matching figures for `COC(=O)C[C@@H](c1ccc(Cl)cc1Cl)N(Cc1cccnc1)C(=O)c1cc(F)cc(F)c1` [Compound 215]: 1 to 10 µM and 10 to 100 µM.
Regarding `COC(=O)C[C@H](c1ccc(Cl)cc1Cl)N(Cc1cccnc1)C(=O)c1cc(F)cc(F)c1` [Compound 216], the results for the EC50 in test [1] and in test [2] were 1 to 10 µM and 10 to 100 µM, respectively.

The values above are taken from patent US20230233541A1, “SUBSTITUTED BENZAMIDES AS MODULATORS OF TREX1” (Constellation Pharmaceuticals, Inc., priority 2020, published 2023).
